This is an account of results in patent publication US5202127A, “Moth-proofing method using trioxane as sole active” (Mitsubishi Gas Chemical Co., Inc., priority 1986, dated 1993).

Data set [1] relates to larvae of case making clothes moths. In words: killing of case making clothes moth larvae in plugged bottle at 25° C. for 4 hours (Tables 3 and 4). Format: in vivo. As to conditions: 10 larvae, chemicals in the solid state, 2 g, 4 hours (Table 4). How it is done:
Granular trioxane containing 1 ppm of formic acid and 2 ppm of formaldehyde was dissolved in various organic solvents at a predetermined concentration to prepare organic liquid insect-proofing agents.
Square absorbent cotton piece having a side of 3 cm, which was impregnated with 2 g of the organic liquid insect-proofing agent, was placed in the bottom portion of a glass bottle having a volume of 500 ml, and an insect cage of a metal net having a diameter of 3 cm, which contained 10 larvae of case making clothes moths having a body length of about 6 mm and a square wool fabric having a side of 3 cm, was secured the absorbent cotton 5 cm apart therefrom. Then, the bottle was plugged and allowed to stand in a thermostat chamber maintained at 25° C. for 4 hours. Then, the cage was taken up and the state of the larvae of case making clothes was checked.
Each of p-dichlorobenzene, naphthalene and dl-camphor was used in the form of a granular reagent. […] One pack of "Mothproofing Agent for Drawers" supplied by Dainippon Jochugiku (corresponding to 12.5 liters) was used as the pyrethroid type chemicals. No chemical was used in Comparative Example 13.

The conditions of data set [2]: cited from earlier work.
In data set [3] the test system is larvae of case making clothes moths. In words: test for controlling harmful insects to clothes, case making clothes moth larvae (Table 1). As to conditions: for Number of dead insects after 6 hours / Number of dead insects after 24 hours: 10 case making clothes moth larvae, 500 ml bottle, 24° to 26° C.; for Eating damage degree after 24 hours: wool fabric, case making clothes moth larvae. Format: in vivo. More on the design: key to Eating damage degree after 24 hours: A: no eating damage; B: eating damage was only a trace; C: intermediate between ranks B and D; D: large eating damage (damage in absence of insect-proofing agent). How it is done:
(§1) The solid insect-proofing agent was subjected to the test for controlling harmful insects to clothes.
(§2) A glass bottle having a volume of 500 ml was charged with 10 harmful insects and one square wool fabric piece having a side of 3 cm, and one pellet of the solid insect-proofing agent was placed apart from the wool fabric piece. The bottle was tightly plugged and was allowed to stand in the dark place at a temperature of 24° to 26° C.
(§3) For comparison, commercially available moth-proofing agents, p-dichlorobenzene and naphthalene (each was in the form of a flat disk-shaped pellet having a diameter of 21 mm), were similarly tested, and the test was carried out without using any moth-proofing agent.
(§4) The results of the tests conducted on larvae of case making clothes moths having a body length of about 6 mm as the harmful insects (Example 6 and Comparative Examples 1 to 3) are shown in Table 1, and the results of the test conducted on larvae of varied carpet beetles having a body length of about 4 mm as harmful insects (Example 7 and Comparative Examples 4 to 6) are shown in Table 2.

In data set [4] the test system is larvae of varied carpet beetles. In words: test for controlling harmful insects to clothes, varied carpet beetle larvae (Table 2). Format: in vivo. More on the design: key to Eating damage degree after 24 hours: A: no eating damage; B: eating damage was only a trace; C: intermediate between ranks B and D; D: large eating damage (damage in absence of insect-proofing agent). As to conditions: for Number of dead insects after 6 hours / Number of dead insects after 24 hours: 10 varied carpet beetle larvae, 500 ml bottle, 24° to 26° C.; for Eating damage degree after 24 hours: wool fabric, varied carpet beetle larvae. How it is done:
as §1, §2, §3, §4

The conditions of data set [5]: it is said; cited from earlier work.
The conditions of data set [6]: cited from earlier work. The source holds these as a separate data set.
A further data set relates to insects. In words: insecticidal force and repellency, general statement. Format: in vivo.
Another data set concerns mice. The settings on record: cited from earlier work.
Another data set has as its system salmonellae. The settings on record: cited from earlier work.
The test system of data set [7] is small fruit flies (drosophila). As to conditions: cited from earlier work.
Data set [8] deals with rats. As to conditions: cited from earlier work.
Data set [9] relates to rats. The settings on record: oral administration to rats; cited from earlier work.

For the compound `CC1(C)[C@@H]2CC[C@@]1(C)C(=O)C2` (relative stereo) [dl-camphor], the “Number of Killed Insects” value in data set [1] is listed as 0.

`CC12CCC(CC1=O)C2(C)C` (stereo not drawn) [camphor]: in data set [2], the solubility in water entry was “hardly soluble or is insoluble in water”.

Consider `c1ccc2ccccc2c1` [naphthalene], for which, in data set [3], the “Number of dead insects after 6 hours” value worked out at 0, the “Number of dead insects after 24 hours” value is reported as 2 and the “Eating damage degree after 24 hours” value is “B”. Further, in data set [4], the “Number of dead insects after 6 hours” value is recorded as 0, the “Number of dead insects after 24 hours” value is given as 0 and the “Eating damage degree after 24 hours” value is reported as “C”. The solubility in water result in data set [2] is recorded as “hardly soluble or is insoluble in water”. In [1], the “Number of Killed Insects” value was found to be 0.

For the compound `Clc1ccc(Cl)cc1` [p-dichlorobenzene], in [3], the “Number of dead insects after 6 hours” value is reported as 5, the “Number of dead insects after 24 hours” value amounted to 10 and the “Eating damage degree after 24 hours” value is on record as “A”. In data set [4], the “Number of dead insects after 6 hours” value is 3, the “Number of dead insects after 24 hours” value is 9 and the “Eating damage degree after 24 hours” value is recorded as “A”. Further, in data set [2], the solubility in water result is reported as “hardly soluble or is insoluble in water”. In data set [1], the “Number of Killed Insects” value is on record as 2. The health effects entry in [5] was “causes liver troubles, lung granulomata, cataract and dermatitis”.

`C1OCOCO1` [trioxane, 1,3,5-trioxane]: in [6] (highly acidic aqueous solution), the “stability in highly acidic aqueous solution” value was “hydrolyzed”. The “stability in neutral or alkaline aqueous solution” value in data set [6] (neutral or alkaline aqueous solution) is “stable”. In data set [6] (normal state), the hydrolyzability result is on record as “very low”. Also, the stability in air entry in data set [6] (normal temperature in air) is given as “very stable”. Besides, the insecticidal force result in the data set with insects (compared with p-dichlorobenzene) is “weaker than that of p-dichlorobenzene”. In the data set with insects (in vivo), the repellency to insects entry is recorded as “sufficient repellency to insects”. Further, the mutagenicity result (in the data set with mice; with salmonellae; in data set [7]; in the data set on rats [8]) was “no mutagenicity” each time. For the same compound, the LD50 in the data set with rats [9] was 8,500 mg/kg. In data set [2] (organic solvents other than saturated hydrocarbons), the “solubility in other various organic solvents” value was “highly soluble”. In addition, in [2] (saturated hydrocarbons), the “solubility in saturated hydrocarbons” value is recorded as “poor”. Further, the solubility in water entry in data set [2] is reported as “soluble in water”.
